In US12297296B2, “Nano small peptide and its use in preparation of drugs for treating and preventing fundus vascular diseases” (FUTU Biotech Co., Ltd., priority 2021, dated 2025):
Where a SMILES comes first, the peptide text is derived from it. [ ]: non-standard residue; d: D form. The star is where a group is joined. ξ: configuration not given here. Palmitoyl = CCCCCCCCCCCCCCCC(=O)*; ξF = NC(Cc1ccccc1)C(=O)O

Columns and labels:
[1] = tested on: endothelial cells (primary endothelial cells of mouse brain microvessels); assay: CCK8 cytotoxicity assay; assay type: cell-based; details: 20 μM; 12, 14, and 36 h
[2] = tested on: primary mouse brain microvascular endothelial cells; assay: Endothelial cell migration (transwell experiment); assay type: cell-based; details: 20 μM, 24 h; for sSema4D-induced endothelial cell migration: sSema4D 1600 ng/mL
Procedure: The primary mouse brain microvascular endothelial cells were starved with 0.5% ECM for 4 to 6 h. The mouse brain microvascular endothelial cells were seeded in the upper layer of a 24-well transwell chamber (8 μm). 1% ECM medium containing FH (20 μM), FG (20 μM), and Sema4D neutralizing antibody (BMA-12) (2 μg/μL) (the concentration of sSema4D in the medium is 1600 ng/mL) was added to the lower chamber, and an equal volume of DMSO was added as control. The cells were incubated in a 5% CO2 incubator at 37° C. for 24 h. 24 h later, the cells on the bottom of the chamber were fixed with 4% paraformaldehyde and stained with crystal violet, and the endothelial cells that penetrated to the bottom of the chamber were counted under a microscope.

[3] = tested on: mouse brain microvascular endothelial cells; assay: Endothelial cell leakage (transmembrane resistance); assay type: cell-based; details: 20 μM, 36 h; for sSema4D-induced endothelial cell leakage: sSema4D 1600 ng/mL
Procedure: A layer of fibronectin was first applied to coat the upper layer of a 24-well transwell chamber (0.4 um) and incubated at room temperature for 1 h; after coating, the mouse brain microvascular endothelial cells were seeded, and cultured for 5 days until the cells were full, and then FH (20 μM), FG (20 μM), and Sema4D neutralizing antibody (BMA-12) (2 μg/μL) were added to the medium (the concentration of sSema4D in the medium was 1600 ng/mL), respectively. An equal volume of DMSO was added as a control, and ECM was used as a blank control. After incubation for 36 h, the resistance value was measured by a cell transmembrane resistance measuring instrument.

[4] = tested on: primary mouse brain microvascular pericytes; assay: Pericyte migration (transwell experiment); assay type: cell-based; details: 20 μM, 36 h; for sSema4D-induced pericyte migration: sSema4D 1600 ng/mL
Procedure: The primary mouse brain microvascular pericytes were starved with 0.5% PM for 4 to 6 h. The pericytes were seeded in the upper layer of a 24-well transwell chamber (8 μm). The medium containing FH (20 μM), FG (20 μM), and Sema4D neutralizing antibody (BMA-12) (2 μg/μL) (the concentration of sSema4D in the medium is 1600 ng/mL) was added to the lower chamber, and an equal volume of DMSO was added as control. The cells were incubated in a 5% CO2 incubator at 37° C. for 36 h. 36 h later, the cells on the bottom of the chamber were fixed with 4% paraformaldehyde and stained with crystal violet, and the pericytes that penetrated to the bottom of the chamber were counted under a microscope.

[5] = In vivo imaging of small animals, entry into vitreous humor; parameters: species or system mouse; details: eye drops (10 μL, 20 μM, three times at 1 h intervals) and vitreous injection (1 μl, 20 μM)
Procedure: 10 μL of FH and FG eye drops (with the concentration of 20 μM, the solvent therein was artificial tears) were instilled on the eyeball surface of mice (8-week-old C57 male mice), once at an interval of 1 h. One hour after the third eye drop, the mice were anesthetized to have cardiac perfusion, the eyeballs of the mice were taken out, the connective tissue on the eye surface was trimmed, and the eyeballs were washed with PBS solution for several times to remove the nano eye drops from the surface of the eyeballs. The eyeball was placed in a small animal imager (at emission wavelength of 535 nm and excitation wavelength of 490 nm) for image acquisition.
Mice (8-week-old C57 male mice) were anesthetized with 4.3% chloral hydrate (0.01 ml/g), and antibiotic eye drops (levofloxacin eye drops), ocular surface anesthetics (Obucaine hydrochloride eye drops) were instilled before the surgery. The head position of the mouse was adjusted to keep the eyeball at the level of the corneal limbus. A small incision was made 1 mm behind the corneal limbus with an insulin injection needle, and 1 μl of nanomedicine FH (20 μM, FG (20 μM) or solvent was injected into the vitreous cavity along the small incision with a Hamilton 33 G syringe); the needle tip entered vertically and then tilted, and after pushing, the needle was retained for 0.5 to 1 min, and the needle was then pulled out quickly. […]

sSema4D [6] = molecular target: T1, sSema4D (Mus musculus, UniProt O09126); assay: sSema4D concentration in a simple medium system (ELISA); assay type: biochemical; parameters: the free Sema4D protein after enzyme cleavage of Sema4D, that is, the sSema4D protein purchased from R&D Systems Company; purchased R&D Systems; details: for sSema4D concentration: sSema4D 1600 ng/mL, peptides 20 μM, antibody 2 μg/μL
T1 sequence (O09126 24-733 limits assumed): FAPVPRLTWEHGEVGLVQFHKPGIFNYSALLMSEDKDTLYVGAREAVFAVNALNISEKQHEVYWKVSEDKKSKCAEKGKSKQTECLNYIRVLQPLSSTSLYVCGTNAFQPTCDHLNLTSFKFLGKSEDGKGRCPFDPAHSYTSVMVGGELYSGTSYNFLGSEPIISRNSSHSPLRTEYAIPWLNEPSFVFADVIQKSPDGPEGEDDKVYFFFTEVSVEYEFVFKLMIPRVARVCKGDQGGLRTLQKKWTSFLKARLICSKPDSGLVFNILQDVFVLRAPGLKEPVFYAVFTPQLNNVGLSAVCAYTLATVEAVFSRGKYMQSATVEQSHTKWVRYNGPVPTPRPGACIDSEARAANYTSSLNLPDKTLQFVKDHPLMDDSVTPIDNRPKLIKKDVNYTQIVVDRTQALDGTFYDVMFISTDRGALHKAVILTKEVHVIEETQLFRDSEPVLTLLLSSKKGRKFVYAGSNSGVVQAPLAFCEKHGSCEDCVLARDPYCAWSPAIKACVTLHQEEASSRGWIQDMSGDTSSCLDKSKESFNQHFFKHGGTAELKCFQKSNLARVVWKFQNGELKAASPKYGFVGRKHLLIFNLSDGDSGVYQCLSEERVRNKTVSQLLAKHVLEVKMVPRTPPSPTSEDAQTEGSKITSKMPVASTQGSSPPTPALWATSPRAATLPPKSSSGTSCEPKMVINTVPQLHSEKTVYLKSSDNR
Procedure: The nano small peptides FH, FG, DMSO, and Sema4D neutralizing antibody (BMA-12) were added to the medium (the concentration of sSema4D in the medium was 1600 ng/mL) to ensure that the final concentration of FH and FG was 20 μM, and the final concentration of the Sema4D neutralizing antibody (BMA-12) (BMA-12, i.e., anti-Sema4D) was 2 μg/μL, an equal volume of DMSO was then added as a control, and culture plates were set still at 37° C. for 12, 24, 36, and 48 h, and the culture medium was collected, and the expression of Sema4D protein in the supernatant was detected using an ELISA kit (Shanghai Yuanmu Biotechnology Co., Ltd.).

sSema4D [7] = molecular target: T1, sSema4D; assay: sSema4D concentration in endothelial cell culture supernatant (ELISA); assay type: cell-based; parameters: the free Sema4D protein after enzyme cleavage of Sema4D, that is, the sSema4D protein purchased from R&D Systems Company; purchased R&D Systems; details: endothelial cells; for sSema4D concentration over the time course: 20 μM, 12, 24, 36, and 48 h; for sSema4D concentration: sSema4D 1600 ng/mL, peptide 20 μM, antibody 2 μg/μL
Procedure: Endothelial cells were uniformly seeded in 6-well cell culture plates and cultured in a 5% CO2 incubator at 37° C. for 24 h. The nano small peptides FH, FG, DMSO, and Sema4D neutralizing antibody (BMA-12) were added to the medium (the concentration of sSema4D in the medium was 1600 ng/mL) to ensure that the final concentration of FH and FG was 20 μM, and the final concentration of the sSema4D neutralizing antibody (BMA-12) was 2 μg/μL, an equal volume of DMSO was then added as a control, and the culture plates were cultured in an incubator for 12, 24, 36, and 48 h, respectively. The cell culture medium was then collected and centrifuged. The supernatant was taken and the expression of Sema4D protein in the supernatant was detected using an ELISA kit (Shanghai Yuanmu Biotechnology Co., Ltd.).

entry into the vitreous humor of mice [5] | sSema4D concentration (sSema4D [6]; 24 h) | effect on sSema4D concentration compared with FG (sSema4D [6]; within the same action time) | sSema4D concentration (sSema4D [7]; 24 h) | effect on sSema4D concentration compared with FG (sSema4D [7]; within the same action time) | Structure (SMILES) | toxic effects on endothelial cells [1] | inhibition of endothelial cell migration compared with Sema4D neutralizing antibody (BMA-12, 2 μg/μL) [2] | sSema4D-induced endothelial cell migration [2] | effect on endothelial cell leakage compared with Sema4D neutralizing antibody (BMA-12, 2 μg/μL) [3] | sSema4D-induced endothelial cell leakage [3] | inhibition of pericyte migration compared with Sema4D neutralizing antibody (BMA-12, 2 μg/μL) [4] | sSema4D-induced pericyte migration [4] | sSema4D concentration (sSema4D [6]; 36 h) | sSema4D concentration over the time course (sSema4D [7]) | sSema4D concentration (sSema4D [7]; 36 h)
entered the vitreous humor | can reduce the sSema4D concentration | better than that of FG | can reduce the sSema4D concentration | better than that of FG | CCCCCCCCCCCCCCCC(=O)NC(Cc1ccccc1)C(=O)N[C@@H](Cc1ccccc1)C(=O)N[C@H](C(=O)N[C@@H](CC(C)C)C(=O)N[C@@H](CCCCN)C(=O)N[C@@H](CCCCN)C(=O)N[C@@H](CCC(N)=O)C(=O)N[C@@H](CCCCN)C(=O)N[C@@H](CCCNC(=N)N)C(=O)N1CCC[C@H]1C(=O)N[C@@H](CCCNC(=N)N)C(=O)N[C@@H](Cc1c[nH]cn1)C(=O)O)C(C)C (stereo in doubt) [FH, hexadecanoyl-FFVLK-KQKRPRH] | did not cause toxic effects | more effective | significantly inhibit | comparable | significantly inhibit | more effective | significantly inhibit | can still reduce the sSema4D concentration | can sustainably reduce the concentration of sSema4D | can still reduce the sSema4D concentration
entered the vitreous humor | can reduce the sSema4D concentration | – | – | – | CCCCCCCCCCCCCCCC(=O)NC(Cc1ccccc1)C(=O)N[C@@H](Cc1ccccc1)C(=O)N[C@H](C(=O)N[C@@H](CC(C)C)C(=O)N[C@@H](CCCCN)C(=O)N[C@@H](CCCCN)C(=O)N[C@@H](CC(N)=O)C(=O)N[C@@H](CCCCN)C(=O)N[C@@H](C)C(=O)N[C@@H](C)C(=O)N[C@@H](CCCCN)C(=O)NCC(=O)O)C(C)C (stereo partly shown) [FG] (Palmitoyl-[ξF]FVLKKNKAAKG-OH) | did not cause toxic effects | more effective | significantly inhibit | comparable | significantly inhibit | – | significantly inhibit | can still reduce the sSema4D concentration | can sustainably reduce the concentration of sSema4D | –
